Measured values reported in paper PMC2944806, “HLA Class I Binding of HBZ Determines Outcome in HTLV-1 Infection” (PLoS Pathogens, 2010).

Assays:
[1] = target: T1, HLA class I molecule A*2402 (Homo sapiens, UniProt P04439, D101N/D140Y/D185E/E176V/E190D/F33S/G103R/G107R/I119L/I121M/I306V/K335N/L105A/L180Q/L300P/N151K/N90K/Q86E/Q94H/R106L/R138H/R89G/T104I/T345S/V100E/W191G/Y123F); assay type: binding; details: REVEAL assay, assembly of peptide-HLA complex by ELISA with conformation-dependent anti-HLA antibody, relative to positive control peptide for that allele, comparable within an allele only
T1 construct: purchased ProImmune Ltd., Oxford, UK

[2] = target: T2, HLA class I molecule B*0702 (Homo sapiens, UniProt P01889); assay: REVEAL HLA-peptide binding assay, B*0702; design: concentration or dose not given beside the values; details: assembly of peptide-HLA complex by ELISA with conformation-dependent anti-HLA antibody, relative to positive control peptide for that allele, comparable within an allele only
T2 construct: purchased ProImmune Ltd., Oxford, UK
Experimental: (§1) The REVEAL HLA-peptide binding assay (ProImmune Ltd., Oxford, UK) was used to quantify peptide-HLA binding. For each allele-peptide combination that was tested, assembly of peptide-HLA complexes was quantified by ELISA with a conformation-dependent anti-HLA antibody. Samples of assembling peptide-HLA complexes were taken at a defined time point and snap-frozen in liquid nitrogen prior to analysis. The assembly for each peptide-HLA complex was then compared against a positive control peptide for that allele as the percentage of assembled peptide relative to that control. We selected four HLA class I alleles and 50 HTLV-1 peptides for each allele. The allele choice was based on allele frequency in the Kagoshima database and included 2 A alleles and 2 B alleles as well as alleles for which we knew that the epitope prediction tended to be poor. The 50 HTLV-1 nonamer peptides for each allele were selected to represent a range of predicted binding affinities, from weak to strong binding peptides. They originated from 4 HTLV-1 reference strain proteins: Tax, HBZ, Gag and Polymerase.
(§2) Note the binding score is with respect to a reference good binding peptide for each allele and therefore scores can be compared within an allele but not between alleles.

[3] = target: HLA class I molecule B*3501 (Homo sapiens, UniProt P01889, A329T/A93T/A95T/C349S/D201E/D98Y/E176V/E187L/E204Q/E69T/I218V/K202T/L119I/Q94N/R155S/R180L/S121R/S35A/S48A/T118I/V127L/V306I/V36M/Y140S/Y91F); assay: REVEAL HLA-peptide binding assay, B*3501; details: assembly of peptide-HLA complex by ELISA with conformation-dependent anti-HLA antibody, relative to positive control peptide for that allele, comparable within an allele only
Experimental: as §1, §2

[4] = target: T3, HLA class I molecule A*0201 (Homo sapiens, UniProt P04439, D140Y/D185E/D98H/E176V/E277Q/G131W/G231S/I119V/I121R/I166T/I218V/L300P/L318F/N151K/N90K/P208A/P217A/Q86G/Q94H/R138H/R169H/T345S); assay type: binding; details: REVEAL assay, assembly of peptide-HLA complex by ELISA with conformation-dependent anti-HLA antibody, relative to positive control peptide for that allele, comparable within an allele only
T3 construct: purchased ProImmune Ltd., Oxford, UK

[5] = system: autologous B-LCL loaded with HBZ26–34 peptide; assay: Chromium release assay, peptide-loaded B-LCL; assay type: cell-based, human; details: 1 µM HBZ 26–34 peptide, 4 h, ^51Cr release; data not shown
Experimental: PBMC from HLA A*0201^+ and HLA A*0201^− HTLV-1 infected individuals were depleted of CD8^+ cells, then enriched for CD25^+ cells using MACS beads (Miltenyi Biotech, Germany), according to manufacturer's instructions. CD25^+ cells were cultured for 16h to allow for viral antigen expression and presentation, then labelled with ^51Cr by incubating for 1h in the presence of 50–100 µCi Na2CrO4 (MP Biomedicals, USA). Labelled cells were washed extensively and placed in culture in triplicate (40,000 cells/well) in the presence of defined ratios of HBZ-1, a CTL clone which recognises HBZ 26–34 in the context of HLA A*0201 [37], alone or in the presence of 5% Triton x-100 (Sigma Aldrich). As a control, ^51Cr labelled B-LCL (autologous to the CTL clone) were cultured at the same ratios, with and without 1 µM HBZ 26–34 peptide. […] Total specific lysis was calculated using the following formula: [chromium release (test well)−chromium release (no CTL control)]/ [chromium release (Triton−100% lysis)−chromium release (no CTL control)]*100, expressed as a percentage specific lysis of total cells. […] Percentage infected cells lysed was calculated using the following formula: [Percentage total cells lysed]/[fraction of CD4^+CD25^+ cells that are infected i.e. provirus positive].

Sequence	Score (experimentally measured binding affinity, % binding compared to control peptide) [1] [%]	Score (experimentally measured binding affinity, % binding compared to control peptide) [2] [%]	Score (experimentally measured binding affinity, % binding compared to control peptide) [3] [%]	Score (experimentally measured binding affinity, % binding compared to control peptide) [4] [%]	Lysis of peptide-loaded autologous B-LCL by the HBZ-specific CD8^+ T cell clone [5]
QAMRKYSPF [HTLV-1 nonamer peptide]	56.78	140.22	69.18		
ASGLFRCLP [HTLV-1 nonamer peptide]	4.14	2	0	2.99	
RVIGSALQF [HTLV-1 nonamer peptide]	65.17	87.63	42.94		
LAAHHWLNF [HTLV-1 nonamer peptide]	35.91	4.59	75.12		
TFLKTAAPL [HTLV-1 nonamer peptide]	86.12	28.15			
GFGQSLLFG [HTLV-1 nonamer peptide]	1.06	0	0	0.29	
AVLDGLLSL [HTLV-1 nonamer peptide]	1.41	18.76	0	92.9	
SAQWIPWRL [HTLV-1 nonamer peptide]	27.07	0	14.94	24.03	
FVERLNIAL [HTLV-1 nonamer peptide]		104.14	13.69	6.6	
IQYSSFHSL [HTLV-1 nonamer peptide]	87.52	2.94		93.93	
GLLSLEEEL [HTLV-1 nonamer peptide, HBZ26–34, recognised in the context of HLA-A*0201]				63.68	could be lysed by the CD8^+ T cell clone
RICPINYSL [HTLV-1 nonamer peptide]	77.87	110.59		71.46	
KALMPVFTL [HTLV-1 nonamer peptide]	8.05	40.22	11.5	79.88	
